Measured values reported in patent US4000269A, “S-(α-substituted-arylmethylthio, -arylmethylsulfinyl, and -arylmethylsulfonyl)methyl phosphorus esters used as insecticides” (priority 1975, dated 1976).

System: Tarnished Plant Bug (Lygus lineolaris)
Assay: A. Tarnished Plant Bug leaf-dip test
Assay type: in vivo
Settings: 48 h, 100 ppm., 2 days, read-out: Percent Mortality, Tarnished plant Bug
Experimental: Test compounds are prepared as 1000 ppm. solutions in 10 % acetone, 0.2 % Alrodyne 315 , and 89.8 % water. A tenfold dilution is made with 65 % acetone and 35 % water. The primary leaves of Sieva lima bean plants are dipped for 3 to 5 seconds in the test solutions and placed in an exhaust hood to dry. When dry, each leaf is placed in a 4 -inch petri dish with a moist filter paper on the bottom. Ten adult Lygus bugs are aspirated from the stock culture and placed in the petri dish. The dishes are covered and held at 80° F. and 50 % R.H. After 2 days, mortality counts are made.

| Compound | mortality at 100 ppm [%] |
| --- | --- |
| COP(=S)(OC)SCSC(C)(C)c1ccc(Cl)cc1 [drawing 22] | 0 |
| CCOP(=S)(OCC)SCSC(C)(C)c1ccc(Cl)c(Cl)c1 [drawing 20] | 0 |
| CCCSP(=O)(OCC)SCSC(C)(C)c1ccccc1 (stereo not drawn) [drawing 16] | 0 |
| CCOP(=S)(OCC)SCSC(C)c1ccccc1 (stereo not drawn) [drawing 7] | 70 |
| COP(=S)(OC)SCSC(C)(C)c1ccc(C#N)cc1 [drawing 9] | 0 |

System: Boll Weevil (Anthonomus grandis)
Assay: B. Boll Weevil leaf-dip test
Assay type: in vivo
Settings: 48 h, 100 ppm., 2 days, read-out: Percent Mortality, Boll Weevil
Experimental: Test compounds are prepared as 1000 ppm. solutions in 10 % acetone, 0.2 % Alrodyne 315 , and 89.8 % water. A tenfold dilution is made with 65 % acetone and 35 % water. The first or second true leaf of young cotton plants is dipped for 3 to 5 seconds in the test solution and placed in an exhaust hood to dry. When dry, each leaf is placed in a 4 -inch petri dish with a moist filter paper on the bottom. Ten adult boll weevils are removed from the stock culture and placed in the petri dish. The dishes are covered and held at 80° F. and 50 % R.H. After 2 days, mortality counts are made.

| Compound | mortality at 100 ppm [%] |
| --- | --- |
| COP(=S)(OC)SCSC(C)(C)c1ccc(Cl)cc1 [drawing 22] | 100 |
| CCOP(=S)(OCC)SCSC(C)(C)c1ccc(Cl)c(Cl)c1 [drawing 20] | 50 |
| CCCSP(=O)(OCC)SCSC(C)(C)c1ccccc1 (stereo not drawn) [drawing 16] | 0 |
| CCOP(=S)(OCC)SCSC(C)c1ccccc1 (stereo not drawn) [drawing 7] | 0 |
| COP(=S)(OC)SCSC(C)(C)c1ccc(C#N)cc1 [drawing 9] | 90 |

System: Bean Aphid (Aphis fabae)
Assay: C. Bean Aphid spray test
Assay type: in vivo
Settings: 48 h, 1 ppm., 2 days, read-out: Percent Mortality, Bean Aphid
Experimental: Compounds are tested at 100 , 10 and 1 ppm. in solution or suspension in 65 % acetone/35 % water. Two-inch fiber pots each containing a nasturtium plant 2 inches high and infested with about 150 aphids 2 days earlier, are placed on a turntable (4 RPM) and sprayed for two revolutions with a No. 154 DeVilbiss Atomizer at 20 psi. air pressure. The spray tip is held about 6 inches from the plants, and the spray is directed so as to give complete coverage of the aphids and the plants. The sprayed plants are laid on their sides on white enamel trays. Mortality estimates are made after holding for 2 days at 70° F. and 50% R.H.

| Compound | mortality at 1 ppm [%] |
| --- | --- |
| COP(=S)(OC)SCSC(C)(C)c1ccc(Cl)cc1 [drawing 22] | 100 |
| CCOP(=S)(OCC)SCSC(C)(C)c1ccc(Cl)c(Cl)c1 [drawing 20] | 0 |
| CCCSP(=O)(OCC)SCSC(C)(C)c1ccccc1 (stereo not drawn) [drawing 16] | 90 |
| CCOP(=S)(OCC)SCSC(C)c1ccccc1 (stereo not drawn) [drawing 7] | 100 |
| COP(=S)(OC)SCSC(C)(C)c1ccc(C#N)cc1 [drawing 9] | 100 |

Same assay, conditions: 48 h, 10 ppm., 2 days, read-out: Percent Mortality, Bean Aphid

| Compound | mortality at 10 ppm [%] |
| --- | --- |
| COP(=S)(OC)SCSC(C)(C)c1ccc(Cl)cc1 [drawing 22] | 100 |
| CCOP(=S)(OCC)SCSC(C)(C)c1ccc(Cl)c(Cl)c1 [drawing 20] | 90 |
| CCCSP(=O)(OCC)SCSC(C)(C)c1ccccc1 (stereo not drawn) [drawing 16] | 100 |
| CCOP(=S)(OCC)SCSC(C)c1ccccc1 (stereo not drawn) [drawing 7] | 100 |
| COP(=S)(OC)SCSC(C)(C)c1ccc(C#N)cc1 [drawing 9] | 100 |

Same assay, conditions: 48 h, 100 ppm., 2 days, read-out: Percent Mortality, Bean Aphid

| Compound | mortality at 100 ppm [%] |
| --- | --- |
| COP(=S)(OC)SCSC(C)(C)c1ccc(Cl)cc1 [drawing 22] | 100 |
| CCOP(=S)(OCC)SCSC(C)(C)c1ccc(Cl)c(Cl)c1 [drawing 20] | 100 |
| CCCSP(=O)(OCC)SCSC(C)(C)c1ccccc1 (stereo not drawn) [drawing 16] | 100 |
| CCOP(=S)(OCC)SCSC(C)c1ccccc1 (stereo not drawn) [drawing 7] | 100 |
| COP(=S)(OC)SCSC(C)(C)c1ccc(C#N)cc1 [drawing 9] | 100 |

System: Southern Armyworm (Prodenia eridania)
Assay: D. Southern Armyworm leaf-dip test
Assay type: in vivo
Settings: Spodoptera eridania, 48 h; 100 ppm.; 2 days; read-out: Percent Mortality, Southern Armyworm
Experimental: Compounds are tested at 1000 and 100 ppm. in solution or suspension in 65 % acetone/35 % water. Sieva lima bean primary leaves are dipped for 3 seconds in the test solution and set in a hood on a screen to dry. When dry, each leaf is placed in a 4 -inch petri dish which has a moist filter paper in the bottom and ten third-instar armyworm larvae about 3/8 inch long. The dishes are covered and held at 80° F., and 60 % R.H. After 2 days, mortality counts and estimates of the amount of feeding are made. Compounds showing partial kill and/or inhibition of feeding are held an extra day for further observations.

| Compound | mortality at 100 ppm [%] |
| --- | --- |
| COP(=S)(OC)SCSC(C)(C)c1ccc(Cl)cc1 [drawing 22] | 100 |
| CCOP(=S)(OCC)SCSC(C)(C)c1ccc(Cl)c(Cl)c1 [drawing 20] | 100 |
| CCCSP(=O)(OCC)SCSC(C)(C)c1ccccc1 (stereo not drawn) [drawing 16] | 100 |
| CCOP(=S)(OCC)SCSC(C)c1ccccc1 (stereo not drawn) [drawing 7] | 30 |
| COP(=S)(OC)SCSC(C)(C)c1ccc(C#N)cc1 [drawing 9] | 100 |

Same assay, conditions: Spodoptera eridania, 48 h; 1000 ppm.; 2 days; read-out: Percent Mortality, Southern Armyworm

| Compound | mortality at 1000 ppm [%] |
| --- | --- |
| COP(=S)(OC)SCSC(C)(C)c1ccc(Cl)cc1 [drawing 22] | 100 |
| CCOP(=S)(OCC)SCSC(C)(C)c1ccc(Cl)c(Cl)c1 [drawing 20] | 100 |
| CCCSP(=O)(OCC)SCSC(C)(C)c1ccccc1 (stereo not drawn) [drawing 16] | 100 |
| CCOP(=S)(OCC)SCSC(C)c1ccccc1 (stereo not drawn) [drawing 7] | 100 |
| COP(=S)(OC)SCSC(C)(C)c1ccc(C#N)cc1 [drawing 9] | 100 |

System: Two-spotted Spider Mite (Tetranychus urticae)
Assay: E. Two-spotted Spider Mite plant-dip test
Assay type: in vivo
Settings: 48 h, 100 ppm., 2 days, read-out: Percent Mortality, Two-spotted Spider Mite
Experimental: Sieva lima bean plants with primary leaves 3 to 4 inches long are infested with about 100 adult mites per leaf 4 hours before use in this test. The mite and egg infested plants are dipped for 3 seconds in the same solutions used in the aphid test, and the plants set in the hood to dry. They are held for 2 days at 80° F., 60% R.H., and the adult mite mortality estimated on one leaf under a steroscopic microscope. The other leaf is left on the plant an additional 5 days and then examined at 10 X power to estimate the kill of eggs and of newly hatched nymphs, giving a measure of ovicidal and residual action, respectively.

| Compound | mortality at 100 ppm [%] |
| --- | --- |
| COP(=S)(OC)SCSC(C)(C)c1ccc(Cl)cc1 [drawing 22] | 100 |
| CCOP(=S)(OCC)SCSC(C)(C)c1ccc(Cl)c(Cl)c1 [drawing 20] | 100 |
| CCCSP(=O)(OCC)SCSC(C)(C)c1ccccc1 (stereo not drawn) [drawing 16] | 100 |
| CCOP(=S)(OCC)SCSC(C)c1ccccc1 (stereo not drawn) [drawing 7] | 0 |
| COP(=S)(OC)SCSC(C)(C)c1ccc(C#N)cc1 [drawing 9] | 100 |

Same assay, conditions: 48 h, read-out: Percent Mortality, Two-spotted Spider Mite

| Compound | mortality at 300 ppm [%] |
| --- | --- |
| COP(=S)(OC)SCSC(C)(C)c1ccc(Cl)cc1 [drawing 22] | 100 |
| CCOP(=S)(OCC)SCSC(C)(C)c1ccc(Cl)c(Cl)c1 [drawing 20] | 100 |
| CCCSP(=O)(OCC)SCSC(C)(C)c1ccccc1 (stereo not drawn) [drawing 16] | 100 |
| CCOP(=S)(OCC)SCSC(C)c1ccccc1 (stereo not drawn) [drawing 7] | 100 |
| COP(=S)(OC)SCSC(C)(C)c1ccc(C#N)cc1 [drawing 9] | 100 |

System: Mexican Bean Beetle (Epilachna varivestis)
Assay: F. Mexican Bean Beetle leaf-dip test
Assay type: in vivo
Settings: 48 h, 10 ppm., 2 days, read-out: Percent Mortality, Mexican Bean Beetle
Experimental: Compounds to be tested are made up as 100 or 10 ppm. solutions in 65 % acetone/35 % water. Sieva lima bean leaves are dipped in the test solution and set in the hood to dry. When dry, they are placed in 4 -inch petri dishes which have a moist filter paper in the bottom, and 10 third-instar bean beetles are added to each dish. The dishes are covered and held at 80° F., 60 % R.H. After 2 days, mortality counts and estimates of the amount of feeding are made. Compounds showing kills greater than 75 % are further tested at tenfold dilutions in 65 % acetone/35 % water.

| Compound | mortality at 10 ppm [%] |
| --- | --- |
| COP(=S)(OC)SCSC(C)(C)c1ccc(Cl)cc1 [drawing 22] | 0 |
| CCOP(=S)(OCC)SCSC(C)(C)c1ccc(Cl)c(Cl)c1 [drawing 20] | 0 |
| CCCSP(=O)(OCC)SCSC(C)(C)c1ccccc1 (stereo not drawn) [drawing 16] | 80 |
| CCOP(=S)(OCC)SCSC(C)c1ccccc1 (stereo not drawn) [drawing 7] | 0 |

Same assay, conditions: 48 h, 100 ppm., 2 days, read-out: Percent Mortality, Mexican Bean Beetle

| Compound | mortality at 100 ppm [%] |
| --- | --- |
| COP(=S)(OC)SCSC(C)(C)c1ccc(Cl)cc1 [drawing 22] | 50 |
| CCOP(=S)(OCC)SCSC(C)(C)c1ccc(Cl)c(Cl)c1 [drawing 20] | 30 |
| CCCSP(=O)(OCC)SCSC(C)(C)c1ccccc1 (stereo not drawn) [drawing 16] | 80 |
| CCOP(=S)(OCC)SCSC(C)c1ccccc1 (stereo not drawn) [drawing 7] | 100 |
| COP(=S)(OC)SCSC(C)(C)c1ccc(C#N)cc1 [drawing 9] | 90 |

System: Western Potato Leafhopper (Empoasca abrupta)
Assay: G. Western Potato Leafhopper plant-dip test
Assay type: in vivo
Settings: 48 h, 10 ppm., 2 days, read-out: Percent Mortality, Western Potato Leafhopper
Experimental: Sieva lima bean plants with the primary leaf expanded to 3 to 4 inches are dipped into 100 or 10 ppm. 50 % acetone/50 % water solutions and set in the hood to dry. A 1 -inch piece of the tip of a treated leaf is cut off and placed in a 4 -inch petri dish with a moist filter paper in the bottom. From 3 to 10 second-instar nymphs are tapped from the culture plants into the test dish and rapidly covered. Mortality counts are made after 2 days at 80° F., and 50 % R.H.

| Compound | mortality at 10 ppm [%] |
| --- | --- |
| COP(=S)(OC)SCSC(C)(C)c1ccc(Cl)cc1 [drawing 22] | 0 |
| CCOP(=S)(OCC)SCSC(C)(C)c1ccc(Cl)c(Cl)c1 [drawing 20] | 0 |
| CCCSP(=O)(OCC)SCSC(C)(C)c1ccccc1 (stereo not drawn) [drawing 16] | 0 |
| CCOP(=S)(OCC)SCSC(C)c1ccccc1 (stereo not drawn) [drawing 7] | 100 |
| COP(=S)(OC)SCSC(C)(C)c1ccc(C#N)cc1 [drawing 9] | 100 |

Same assay, conditions: 48 h, 100 ppm., 2 days, read-out: Percent Mortality, Western Potato Leafhopper

| Compound | mortality at 100 ppm [%] |
| --- | --- |
| COP(=S)(OC)SCSC(C)(C)c1ccc(Cl)cc1 [drawing 22] | 100 |
| CCOP(=S)(OCC)SCSC(C)(C)c1ccc(Cl)c(Cl)c1 [drawing 20] | 100 |
| CCCSP(=O)(OCC)SCSC(C)(C)c1ccccc1 (stereo not drawn) [drawing 16] | 100 |
| CCOP(=S)(OCC)SCSC(C)c1ccccc1 (stereo not drawn) [drawing 7] | 100 |
| COP(=S)(OC)SCSC(C)(C)c1ccc(C#N)cc1 [drawing 9] | 100 |

System: Malaria Mosquito (Anopheles quadrimaculatus)
Assay: H. Malaria Mosquito Adult Test
Assay type: in vivo
Settings: 24 h, adults, 1 day, read-out: Percent Mortality, Malaria Mosquito
Experimental: Solutions of 65% acetone/35% water containing 10 ppm. of test compound are poured into wide-mouth 2-ounce jars, each containing a microscope slide. The slides are removed from the test solution with forceps and laid horizontally to dry on a wide-mouth 4-ounce bottle. When dry, they are placed in the same 4-ounce bottle and 10 4- to 5-day-old mosquitoes of mixed sexes are added to each bottle. A piece of cotton gauze held on by an elastic band serves as a lid, and wad of cotton soaked in 10% honey solution serves as food. Mortality counts are made after 1 day at 80° F., 50% R.H. (relative humidity) Data obtained with the above procedures are reported in Table II below.

| Compound | mortality at 10 ppm [%] |
| --- | --- |
| COP(=S)(OC)SCSC(C)(C)c1ccc(Cl)cc1 [drawing 22] | 100 |
| CCOP(=S)(OCC)SCSC(C)(C)c1ccc(Cl)c(Cl)c1 [drawing 20] | 0 |
| CCCSP(=O)(OCC)SCSC(C)(C)c1ccccc1 (stereo not drawn) [drawing 16] | 0 |
| CCOP(=S)(OCC)SCSC(C)c1ccccc1 (stereo not drawn) [drawing 7] | 100 |
| COP(=S)(OC)SCSC(C)(C)c1ccc(C#N)cc1 [drawing 9] | 60 |
